Usually IC50 stands for the concentration at which inhibition is half-maximal. High values mean a need for much substance, low ones inhibition by little substance. One may read the AUC(0-t) as the area under the concentration-time curve up to a stated or last time point. Read a high AUC(0-t) as high exposure. As a reminder, the AUC(0-inf) is the area under the concentration-time curve extrapolated to infinity. A high value points to high exposure. As a reminder, the Tmax is the time from dosing to the highest level. As usually defined, the half-life is the time needed for the level to fall by half in the phase considered. A lower half-life goes with rapid decline. In general, Cmax refers to the highest concentration seen after dosing. What is called MRT is the average time that molecules of a dose stay in the body.

Activity calls are given as the source filed them. A value given as a limit tells only on which side of the number the result lay.

Data set [1] can be described thus: Toxicity in BALB/c mouse xenografted with human Ty-82 assessed as body weight loss treated at 0.25 to 0.5 mg/kg, po qd for 21 days. The class given is organism-based. The settings on record: in vivo, 504 h, dose 0.25-0.5 mg/kg, time 21 day.
For data set [2], the system named is Ty-82. Kind of data set: Induction of apoptosis in human Ty-82 cells assessed as increase in cleaved PARP at 0.1 to 10 nM for 48 hrs […]. The class given is functional, cell-based. The settings on record: dose 0.1-10 nM. On the technique in general: A flow cytometer gives signals particle by particle.
For data set [3], the system named is Ty-82. Briefly: Induction of apoptosis in human Ty-82 cells assessed as reduction of c-Myc mRNA level at 0.1 to 10 nM for 24 hrs by […]. The class given is functional, cell-based. The settings on record: dose 0.1-10 nM. For orientation: In western blotting, separated proteins are transferred to a membrane and probed.
A short description of data set [4]: Toxicity in BALB/c mouse xenografted with human Ty-82 assessed as death treated at 0.25 to 0.5 mg/kg, po qd for 21 days. The class given is organism-based. The settings on record: in vivo, 504 h, dose 0.25-0.5 mg/kg, time 21 day.
For data set [5], the system named is CAPAN-1. Kind of data set: Induction of apoptosis in human CAPAN-1 cells assessed as increase in caspase 9 at 0.1 to 10 nM for 48 hrs […]. The class given is functional, cell-based. The settings on record: dose 0.1-10 nM.
The test system of data set [6] is CAPAN-1. Briefly: Induction of apoptosis in human CAPAN-1 cells for 48 hrs by annexin V-FITC based flow cytometric analysis. The class given is functional, cell-based. Conditions: dose 0.1-10 nM.
In data set [7] the test system is CAPAN-1. Kind of data set: Induction of apoptosis in human CAPAN-1 cells assessed as increased cleaved PARP at 0.1 to 10 nM for 48 hrs […]. The class given is functional, cell-based. Conditions: dose 0.1-10 nM.
The test system of data set [8] is Ty-82. Briefly: Induction of apoptosis in human Ty-82 cells assessed as increase in caspase 7 at 0.1 to 10 nM for 48 hrs […]. It counts as functional, cell-based. The settings on record: dose 0.1-10 nM.
In data set [9] the test system is Ty-82. Kind of data set: Induction of apoptosis in human Ty-82 cells assessed as increase in caspase 3 at 0.1 to 10 nM for 48 hrs […]. Conditions: dose 0.1-10 nM. It counts as functional, cell-based.
Data set [10] deals with CAPAN-1. Briefly: Induction of apoptosis in human CAPAN-1 cells assessed as increase in caspase 3 at 0.1 to 10 nM for 48 hrs […]. The class given is functional, cell-based. Conditions: dose 0.1-10 nM.
Data set [11] has as its system MV4-11. Briefly: Antitumor activity against human MV4-11 cells xenografted in BALB/c mouse assessed as growth inhibition at 0.6 mg/kg, po qd 21 days relative to control. The class given is functional. The settings on record: MV4-11, 504 h, time 21 day, read-out: GI.
Data set [12] concerns Ty-82. Briefly: Induction of apoptosis in human Ty-82 cells assessed as increase in caspase 9 at 0.1 to 10 nM for 48 hrs […]. The class given is functional, cell-based. The settings on record: dose 0.1-10 nM.
Data set [13] has as its system CAPAN-1. Kind of data set: Induction of apoptosis in human CAPAN-1 cells assessed as increase in caspase 7 at 0.1 to 10 nM for 48 hrs […]. The class given is functional, cell-based. Conditions: dose 0.1-10 nM.
Data set [14] relates to Ty-82. Kind of data set: Antitumor activity against human Ty-82 cells xenografted in BALB/c nude mouse assessed tumor growth inhibition treated at 0.5 mg/kg, po qd for 21 days relative to control. The class given is functional. The settings on record: TY82, 504 h, time 21 day, read-out: TGI.
The subject of data set [15] is Ty-82. Briefly: Induction of apoptosis in human Ty-82 cells for 48 hrs by annexin V-FITC based flow cytometric analysis. The settings on record: dose 0.1-10 nM. The class given is functional, cell-based.
Data set [16] concerns Ty-82. Briefly: Induction of apoptosis in human Ty-82 cells assessed as reduction of IDO1 mRNA level at 0.1 to 10 nM for 24 hrs by […]. The settings on record: dose 0.1-10 nM. The class given is functional, cell-based.
Data set [17] concerns Ty-82. Kind of data set: Antiproliferative activity against human Ty-82 cells incubated for 72 hrs by sulforhodamine B based cell counting kit-8 assay. The class given is functional. Conditions: TY82, 72 h.
Data set [18] deals with Bromodomain-containing protein 4 (Homo sapiens, UniProt O60885). Briefly: Inhibition of full length BRD4 (unknown origin) transfected in HEK293 cells incubated for 20 hrs measured by NanoBRET BRD4/Histone H3.3 interaction assay kit. It counts as cell-based. (In BRET a luciferase serves as donor, and the signal depends on an acceptor being close.)
Data set [19] has as its system MM1.S. Briefly: Antiproliferative activity against human MM1.S cells incubated for 72 hrs by sulforhodamine B based cell counting kit-8 assay. It counts as functional.
Data set [20] is described as follows: AUClast in CD-1 mouse at 10 mg/kg, po. It counts as ADME, organism-based. Further details: dose 10 mg/kg, route po. Conditions: in vivo.
Data set [21] can be described thus: Observed AUC infinity in CD-1 mouse at 10 mg/kg, po. The settings on record: in vivo. Further details: dose 10 mg/kg, route po. It counts as ADME, organism-based.
A short description of data set [22]: Tmax in CD-1 mouse at 10 mg/kg, po. The class given is ADME, organism-based. Conditions: in vivo.
Data set [23] in a line: Half life in CD-1 mouse at 10 mg/kg, po. It counts as ADME, organism-based. The settings on record: in vivo.
Data set [24] in a line: Cmax in CD-1 mouse at 10 mg/kg, po. The class given is ADME, organism-based. Further details: dose 10 mg/kg, route po. Conditions: in vivo.
Data set [25] can be described thus: Observed MRT infinity in CD-1 mouse at 10 mg/kg, po. Conditions: in vivo. It counts as ADME, organism-based.
Data set [26] relates to MV4-11. Kind of data set: Antiproliferative activity against human MV4-11 cells. It counts as functional, cell-based.

For `CCS(=O)(=O)Nc1ccc(Oc2ccc(F)cc2F)c(-c2cn(C)c(=O)c3[nH]ccc23)c1` [MIVEBRESIB], the Activity entry is “Toxic” in data set [1], “Non-Toxic” in data set [4], “Dose-Dependent Effect” in data set [6] and “Dose-Dependent Effect” in data set [15]. Moreover, the result in [2], in [3], in data set [5], in [7], in data set [8] and in data set [9] was Active. For the same molecule, the result in data set [10], in data set [12], in [13] and in data set [16] was Active. Moreover, the inhibition in vivo at 0.6 mg/kg in data set [11] stood at 66.9%. Besides, the inhibition in vivo at 0.5 mg/kg in data set [14] stood at 67.6%.
Regarding `Cc1ccc(-n2nc(C(=O)N3CCNCC3)nc2-c2ccc3c(c2)N(C2CCCC2)[C@@H](C)C(=O)N3C)cc1`, the IC50 was more than 20000 nM in data set [17], 1730 nM in data set [18] and more than 20000 nM in data set [19].
As to `Cc1ccc(-n2nc(C(=O)N(C)CCN(C)C(=O)c3nc(-c4ccc5c(c4)N(C4CCCC4)[C@H](C)C(=O)N5C)n(-c4ccc(C)cc4)n3)nc2-c2ccc3c(c2)N(C2CCCC2)[C@H](C)C(=O)N3C)cc1`, the AUC(0-t) in data set [20] was 124 ng·h/mL. The same molecule registered an AUC(0-inf) in data set [21] of 129 ng·h/mL. The Tmax in data set [22] was found to be 0.25 h. The molecule also gave a half-life in data set [23] of 0.49 h. Also, the Cmax in [24] amounted to 264 ng/mL. This molecule also registered an MRT in data set [25] of 1.07 h.
For `Cc1ccc(-n2nc(C(=O)N3CCNCC3)nc2-c2ccc3c(c2)N(C2CCCC2)[C@H](C)C(=O)N3C)cc1`, the values for the IC50 in data set [17], in [18] and in data set [19] were 24.1 nM, 52.2 nM and 47.4 nM, respectively.
As for `Cc1ccc(-n2nc(C(=O)N3CCN(C(=O)c4nc(-c5ccc6c(c5)N(C5CCCC5)[C@H](C)C(=O)N6C)n(-c5ccc(C)cc5)n4)CC3)nc2-c2ccc3c(c2)N(C2CCCC2)[C@H](C)C(=O)N3C)cc1`, in data set [20], the area under the curve AUC(0-t) was determined as 361 ng·h/mL. The molecule also returned an AUC(0-inf) in [21] of 372 ng·h/mL. Further, the Tmax in data set [22] worked out at 1 h. The molecule further had a half-life in data set [23] of 0.82 h. The same molecule gave an IC50 in [18] of 6.2 nM. In addition, the Cmax in data set [24] came out at 238 ng/mL. This molecule also yielded a mean residence time (MRT) in data set [25] of 1.69 h.
With `Cc1ccc(-n2nc(C(=O)N3CCN(C(=O)c4nc(-c5ccc6c(c5)N(C5CCCC5)[C@@H](C)C(=O)N6C)n(-c5ccc(C)cc5)n4)CC3)nc2-c2ccc3c(c2)N(C2CCCC2)[C@H](C)C(=O)N3C)cc1`, the IC50 came out at 16.7 nM in data set [17], 66.6 nM in data set [18] and 3.12 nM in data set [19].
Regarding `Cc1ccc(-n2nc(C(=O)N3C[C@H](C)N(C(=O)c4nc(-c5ccc6c(c5)N(C5CCCC5)[C@H](C)C(=O)N6C)n(-c5ccc(C)cc5C)n4)C[C@H]3C)nc2-c2ccc3c(c2)N(C2CCCC2)[C@H](C)C(=O)N3C)c(C)c1`, the IC50 in data set [17] is 0.75 nM; in [19] it was 0.29 nM.
`Cc1ccc(-n2nc(C(=O)N[C@@H]3CCCC[C@H]3NC(=O)c3nc(-c4ccc5c(c4)N(C4CCCC4)[C@H](C)C(=O)N5C)n(-c4ccc(C)cc4)n3)nc2-c2ccc3c(c2)N(C2CCCC2)[C@H](C)C(=O)N3C)cc1` gave an AUC(0-t) in [20] of 205 ng·h/mL. This molecule also had an AUC(0-inf) in data set [21] of 278 ng·h/mL. Moreover, the Tmax in data set [22] came to 2.67 h. The molecule also showed a half-life in data set [23] of 0.1 h. This molecule returned a Cmax in data set [24] of 33.7 ng/mL. The same molecule had an MRT in data set [25] of 11.2 h.
Take `Cc1sc2c(c1C)C(c1ccc(Cl)cc1)=NC(CC(=O)OC(C)(C)C)c1nnc(C)n1-2` (configuration not stated): the IC50 in data set [26] worked out at 72.2 nM.

These data come from ChEMBL document CHEMBL5352381, “Design and development of a novel series of oral bivalent BET inhibitors with potent anticancer activities” (Eur J Med Chem, 2022).
